The values that follow come from ChEMBL document CHEMBL5036363, “Discovery and Lead Optimization of Benzene-1,4-disulfonamides as Oxidative Phosphorylation Inhibitors” (J Med Chem, 2022).

Data set [1] can be described thus: Inhibition of mitochondrial complex I (unknown origin) incubated for 20 hrs by Colorimetric assay.
The next data set relates to NCI-H460. The data set can be described thus: Cytotoxicity against human NCI-H460 cells assessed as reduction in galactose-dependent cell viability incubated for 3 days by IncuCyte live-cell imaging assay. In kind it is functional, cell-based. The settings on record: NCI-H460, 72 h.
The species entered for a further data set is Homo sapiens. The data set can be described thus: Inhibition of complex-I-dependent oxygen consumption in mitochondria of human PC-3 cells by luxcel-dye staining based MitoXpress method. In kind it is functional, cell-based.
Data set [2] is described as follows: Inhibition of oxidative phosphorylation in human MIA PaCa-2 cells assessed as reduction in ATP production incubated for 24 hrs in galactose-containing medium by CellTiter-glo luminescence assay. In kind it is functional, cell-based. The settings on record: MIA PaCa-2, 24 h.
Data set [3] has as its system MIA PaCa-2. The data set can be described thus: Cytotoxicity against human MIA PaCa-2 cells assessed as inhibition of cell growth incubated for 3 days in galactose-containing medium by MTT assay. In kind it is functional, cell-based. As to conditions: MIA PaCa-2, 72 h.
Data set [4] can be described thus: Toxicity in C57BL/6 mouse xenografted with human MIA PaCa-2 cells assessed as body weight loss at 5 mg/kg, ip measured twice a week for 28 days. In kind it is organism-based. As to conditions: in vivo, 672 h, time 28 day.
The test system of data set [5] is MIA PaCa-2. Description: Antitumor activity against human MIA PaCa-2 cells xenografted in C57BL/6 mouse syngeneic model assessed as tumor growth inhibition at 5 mg/kg, ip measured upto 28 days by digital caliper method. In kind it is functional, organism-based. The settings on record: time day <=28.
Data set [6] has as its system MIA PaCa-2. The data set can be described thus: Cytotoxicity against human MIA PaCa-2 cells assessed as inhibition of cell growth incubated for 3 days in glucose-containing medium by MTT assay. In kind it is functional, cell-based. The settings on record: MIA PaCa-2, 72 h.
Data set [7] in a line: Inhibition of oxidative phosphorylation complex I in human MIA PaCa-2 cells assessed as reduction in NAD+/NADH ratio incubated for 48 hrs by NAD/NADH-Glo assay. In kind it is cell-based. As to conditions: MIA PaCa-2, 48 h.
Data set [8] relates to MIA PaCa-2. Description: Inhibition of oxidative phosphorylation in human MIA PaCa-2 cells assessed as reduction in ATP production incubated for 24 hrs in glucose-containing medium by CellTiter-glo luminescence assay. In kind it is functional, cell-based.
In data set [9] the test system is MIA PaCa-2. The data set can be described thus: Cytotoxicity against human MIA PaCa-2 cells assessed as inhibition of cell growth incubated for 7 days in glucose-containing medium by MTT assay. In kind it is functional, cell-based. The settings on record: MIA PaCa-2, 168 h.
The nature of data set [10]: Inhibition of mitochondrial complex I in human pancreatic cancer cells assessed as reduction in oxygen consumption rate measured immediately by seahorse XFe96 analyser based assay. The settings on record: pancreatic cancer cell.

pIC50: −log10 of the molar value. Activity calls are given as the source filed them. No cut-off for these calls is given here. Bounds are passed on as bounds.

Take `FC(F)(F)c1ccc(/C=C/c2nc(COc3ccc(CCCCn4ccnn4)cc3)co2)cc1` [MUBRITINIB]: the negative-log IC50 (pIC50) in [1] was 7.29.
Take `Cc1nc(-c2nc(-c3ccc(OC(F)(F)F)cc3)no2)nn1Cc1cccc(N2CCC(S(C)(=O)=O)CC2)c1`: the negative logarithm of the IC50 (pIC50) in the data set on NCI-H460 is 8.85.
With `Cc1cc(-c2nc(-c3ccc(OC(F)(F)F)cc3)no2)nn1Cc1ccnc(N2CCN(C3CC3)CC2)c1`, the negative logarithm of the IC50 (pIC50) in the data set filed under Homo sapiens was 8.00.
Take `CC(C)c1noc(N2CCN(C(=O)[C@@H]3CCCN(S(=O)(=O)c4ccc(S(=O)(=O)C5CCC5)cc4)C3)CC2)n1`: the pIC50 in data set [2] was 7.37; with MIA PaCa-2 [3], below 5.00; in the data set with MIA PaCa-2 [6], 7.70; in data set [7], 7.80; with MIA PaCa-2 [9] it was 7.15. In data set [4], the Activity entry is “Non-Toxic”. Moreover, the outcome in the data set with MIA PaCa-2 [5] was Active. In addition, the inhibition entry with MIA PaCa-2 [8] is “inactive”.
Regarding `CN(C)C(=N)NC(=N)N` [METFORMIN], the negative logarithm of the IC50 (pIC50) in data set [10] is 3.10.
